Results from ChEMBL document CHEMBL1201862, “PubChem BioAssay data set” (2004).
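Compound exposure: 48 hours, 5 concentrations, 96-well plates. GI50 marks 50% less growth.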 Activity calls are given as the source filed them. No stated cut-off is given here; in the data, active = GI50 up to about 1.1 µM and inactive = higher.

Legend:
Test in all cases: NCI-60 cell line screen, 48 h
COLO 205 = tested on: COLO 205
EKVX = tested on: EKVX
HL-60 = tested on: HL-60
IGROV-1 = tested on: IGROV-1
K562 = tested on: K562
LXFL 529 = tested on: LXFL 529
Malme-3M = tested on: Malme-3M
NCI-H522 = tested on: NCI-H522
OVCAR-4 = tested on: OVCAR-4
OVCAR-8 = tested on: OVCAR-8
RPMI-8226 = tested on: RPMI-8226
SF-539 = tested on: SF-539
SK-MEL-2 = tested on: SK-MEL-2
SK-MEL-5 = tested on: SK-MEL-5
SK-OV-3 = tested on: SK-OV-3
TK-10 = tested on: TK-10
UACC-62 = tested on: UACC-62
A498 = tested on: A498
DU-145 = tested on: DU-145
Hs-578T = tested on: Hs-578T

Compound | GI50 (COLO 205) | GI50 (EKVX) | GI50 (HL-60) | GI50 (IGROV-1) | GI50 (K562) | GI50 (LXFL 529) | GI50 (Malme-3M) | GI50 (NCI-H522) | GI50 (OVCAR-4) | GI50 (OVCAR-8) | GI50 (RPMI-8226) | GI50 (SF-539) | GI50 (SK-MEL-2) | GI50 (SK-MEL-5) | GI50 (SK-OV-3) | GI50 (TK-10) | GI50 (UACC-62) | GI50 (A498) | GI50 (DU-145) | GI50 (Hs-578T)
COc1ccccc1NC(=O)CC(=O)n1nc(-c2ccccc2)c(/N=N/c2ccccc2[N+](=O)[O-])c1-c1ccccc1 | 95.5 µM (inactive) | 44.5 µM (inactive) | > 100 µM (inactive) | > 100 µM (inactive) | 80.7 µM (inactive) | 83.2 µM (inactive) | > 100 µM (inactive) | > 100 µM (inactive) | > 100 µM (inactive) | > 100 µM (inactive) | 74.5 µM (inactive) | > 100 µM (inactive) | > 100 µM (inactive) | 94.4 µM (inactive) | > 100 µM (inactive) | > 100 µM (inactive) | > 100 µM (inactive) |  |  | 
CC1=C[C@H]2C[C@@]3(C)O[C@@H]([C@]4(C)CC[C@H]([C@@H](C)C(=O)O)OO4)CC3C(C)(C)[C@H]2CC1 (stereo partly specified) | 1.44 µM (inactive) | 1.87 µM (inactive) | 0.114 µM (active) |  |  | 0.612 µM (active) | 0.849 µM (active) | 0.331 µM (active) | 1.5 µM (inactive) | 1.45 µM (inactive) |  | 1.94 µM (inactive) | 1.71 µM (inactive) |  |  | 2.79 µM (inactive) |  |  |  | 
Cn1c2c(c3ccccc31)C1C(=O)N(c3ccccc3)C(=O)C1CC2 (stereo unspecified) | > 303 µM (inactive) | > 303 µM (inactive) | > 303 µM (inactive) | > 303 µM (inactive) | > 303 µM (inactive) | > 303 µM (inactive) | > 303 µM (inactive) | 243 µM (inactive) |  | > 303 µM (inactive) | > 303 µM (inactive) | > 303 µM (inactive) | > 303 µM (inactive) | > 303 µM (inactive) | > 303 µM (inactive) | > 303 µM (inactive) | > 303 µM (inactive) |  |  | 
CCOc1ccc(/N=N/c2c(-c3ccccc3)nn(C(=O)CC(=O)Nc3cccc(C)c3)c2-c2ccccc2)cc1 | > 100 µM (inactive) | 38.1 µM (inactive) | > 100 µM (inactive) | > 100 µM (inactive) | 38.8 µM (inactive) | > 100 µM (inactive) | > 100 µM (inactive) | > 100 µM (inactive) | > 100 µM (inactive) | > 100 µM (inactive) | 65.8 µM (inactive) | 76.2 µM (inactive) | > 100 µM (inactive) | 90.2 µM (inactive) | > 100 µM (inactive) | > 100 µM (inactive) | > 100 µM (inactive) |  |  | 
CCCCCCCCCCCCCC(=O)OCC1OC(=O)C(O)C1O (stereo unspecified) | > 100 µM (inactive) | > 100 µM (inactive) | > 100 µM (inactive) | > 100 µM (inactive) | 73.8 µM (inactive) | > 100 µM (inactive) | > 100 µM (inactive) | > 100 µM (inactive) | > 100 µM (inactive) | > 100 µM (inactive) | > 100 µM (inactive) | > 100 µM (inactive) |  | > 100 µM (inactive) | > 100 µM (inactive) | > 100 µM (inactive) | > 100 µM (inactive) | > 100 µM (inactive) |  | 
COc1ccc(C2C(Cl)C(=O)N2NC(=O)Cc2ccccc2)cc1 (stereo unspecified) | > 100 µM (inactive) | > 100 µM (inactive) | > 100 µM (inactive) | > 100 µM (inactive) | > 100 µM (inactive) | > 100 µM (inactive) | > 100 µM (inactive) | > 100 µM (inactive) | > 100 µM (inactive) | > 100 µM (inactive) | > 100 µM (inactive) |  | > 100 µM (inactive) | > 100 µM (inactive) | > 100 µM (inactive) | > 100 µM (inactive) | > 100 µM (inactive) |  |  | 
NC(=S)N/N=C(/CC(=O)c1ccc([N+](=O)[O-])cc1)C(=O)Nc1ncc([N+](=O)[O-])s1 | > 100 µM (inactive) | > 100 µM (inactive) | 45.2 µM (inactive) | > 100 µM (inactive) |  | 92.5 µM (inactive) | > 100 µM (inactive) |  | > 100 µM (inactive) | > 100 µM (inactive) | > 100 µM (inactive) |  | > 100 µM (inactive) | > 100 µM (inactive) |  | > 100 µM (inactive) | 52.7 µM (inactive) |  |  | 
O=C(O)Cc1cc(=O)[nH]c2c1C(=O)CCC2 | > 100 µM (inactive) | > 100 µM (inactive) | > 100 µM (inactive) | > 100 µM (inactive) | > 100 µM (inactive) | > 100 µM (inactive) | > 100 µM (inactive) | > 100 µM (inactive) |  | > 100 µM (inactive) | > 100 µM (inactive) |  | > 100 µM (inactive) | > 100 µM (inactive) | > 100 µM (inactive) | > 100 µM (inactive) |  |  |  | 
N#Cc1ccc(C2OCC3CC=CCC3CO2)cc1 (stereo unspecified) | 80.9 µM (inactive) | 31.2 µM (inactive) | 30.7 µM (inactive) | > 100 µM (inactive) | 30.9 µM (inactive) | 47.1 µM (inactive) | > 100 µM (inactive) | 18.9 µM (inactive) | > 100 µM (inactive) | 83.4 µM (inactive) | 42.2 µM (inactive) | > 100 µM (inactive) | > 100 µM (inactive) | 21.1 µM (inactive) | > 100 µM (inactive) |  | 80.7 µM (inactive) |  |  | 
C[P+]1(Cc2ccccc2)CCCC1 | > 100 µM (inactive) | > 100 µM (inactive) | > 100 µM (inactive) | > 100 µM (inactive) | > 100 µM (inactive) | > 100 µM (inactive) | 62.8 µM (inactive) | > 100 µM (inactive) |  | > 100 µM (inactive) | > 100 µM (inactive) | > 100 µM (inactive) | > 100 µM (inactive) | > 100 µM (inactive) | > 100 µM (inactive) | > 100 µM (inactive) | > 100 µM (inactive) | > 100 µM (inactive) |  | 
O=C(O)c1cc(=O)c2c([nH]c3ccccc32)s1 | > 100 µM (inactive) | > 100 µM (inactive) | > 100 µM (inactive) | > 100 µM (inactive) | > 100 µM (inactive) | > 100 µM (inactive) | > 100 µM (inactive) | > 100 µM (inactive) | > 100 µM (inactive) | > 100 µM (inactive) | > 100 µM (inactive) |  | > 100 µM (inactive) | > 100 µM (inactive) | > 100 µM (inactive) | > 100 µM (inactive) | > 100 µM (inactive) |  |  | 
COc1ccc(/C=C(\Cl)c2ccc(OC)cc2)cc1 | > 100 µM (inactive) | > 100 µM (inactive) | > 100 µM (inactive) |  | > 100 µM (inactive) | > 100 µM (inactive) | > 100 µM (inactive) | > 100 µM (inactive) | > 100 µM (inactive) | > 100 µM (inactive) | > 100 µM (inactive) | > 100 µM (inactive) |  | > 100 µM (inactive) | 0.325 µM (active) | > 100 µM (inactive) | 38.8 µM (inactive) | > 100 µM (inactive) |  | 
CC(=O)C1C(=O)NC(=O)C1=O (stereo unspecified) | > 100 µM (inactive) | > 100 µM (inactive) |  | > 100 µM (inactive) | > 100 µM (inactive) | > 100 µM (inactive) | > 100 µM (inactive) | > 100 µM (inactive) | > 100 µM (inactive) | > 100 µM (inactive) | > 100 µM (inactive) | > 100 µM (inactive) | > 100 µM (inactive) | > 100 µM (inactive) | > 100 µM (inactive) | > 100 µM (inactive) | > 100 µM (inactive) | > 100 µM (inactive) |  | 
COc1c(O)ccc(C2=Cc3ccc(O)cc3OC2)c1OC | 28.2 µM (inactive) | 15.1 µM (inactive) | 2.82 µM (inactive) | 25.8 µM (inactive) | 7.08 µM (inactive) |  | 18.9 µM (inactive) | 2.34 µM (inactive) | 23.9 µM (inactive) | 18 µM (inactive) | 3.51 µM (inactive) | 16.3 µM (inactive) | 23.4 µM (inactive) | 16.1 µM (inactive) | 24 µM (inactive) | 55.2 µM (inactive) | 16.2 µM (inactive) | 27.9 µM (inactive) | 26.7 µM (inactive) | 19.5 µM (inactive)
C[P+](C)(C)C | > 100 µM (inactive) | > 100 µM (inactive) | > 100 µM (inactive) | > 100 µM (inactive) | > 100 µM (inactive) | > 100 µM (inactive) | > 100 µM (inactive) |  | > 100 µM (inactive) | > 100 µM (inactive) | > 100 µM (inactive) | > 100 µM (inactive) | > 100 µM (inactive) | > 100 µM (inactive) | > 100 µM (inactive) | > 100 µM (inactive) | > 100 µM (inactive) |  |  | 
CN1CCCN(C)C1c1cc([N+](=O)[O-])ccc1O | 56.1 µM (inactive) | 38.6 µM (inactive) | 21.5 µM (inactive) | 26.3 µM (inactive) | 39 µM (inactive) |  | 23.5 µM (inactive) | 33.9 µM (inactive) | 32 µM (inactive) | 35.6 µM (inactive) | 31 µM (inactive) | 25.2 µM (inactive) | 31 µM (inactive) | 19.7 µM (inactive) | 34.1 µM (inactive) | 56.1 µM (inactive) | 16.6 µM (inactive) | > 100 µM (inactive) | 36.9 µM (inactive) | 26.1 µM (inactive)
OC(c1cc(-c2ccccc2)nc2c1ccc1ccccc12)C1CCCCN1 (stereo unspecified) | 1.95 µM (inactive) | 1.93 µM (inactive) | 0.855 µM (active) | 1.68 µM (inactive) | 2.54 µM (inactive) |  | 1.38 µM (inactive) | 1.58 µM (inactive) | 1.96 µM (inactive) | 1.96 µM (inactive) | 1.12 µM (active) | 1.92 µM (inactive) | 1.79 µM (inactive) | 2.8 µM (inactive) | 1.88 µM (inactive) | 1.75 µM (inactive) | 1.85 µM (inactive) | 1.92 µM (inactive) | 2.02 µM (inactive) | 1.51 µM (inactive)
